Where two headings read alike, the source gives them in different places.
Target: T1, PAF-Rezeptor (Homo sapiens, UniProt P25105)
T1 construct: endogenous in cells; host or cells: intact human platelets from blood of healthy donors, purified on Sepharose CL-2B
Test: [^3H]PAF receptor binding on vital human platelets
Experimental: [^3H]PAF-Rezeptor-Bindung an vitalen humanen Blutplättchen
Bestimmt wird die konkurrierende Wechselwirkung von Prüfsubstanzen (hier PAF-Antagonisten) mit der bekannten Wechselwirkung des Radioliganden [^3H]PAF zum gleichen Rezeptor.
Die Bindungsstudien wurden an vitalem menschlichen Thrombozyten vorgenommen. Blutproben von gesunden Spendern wurden mit ACD-Puffer verdünnt und zentrifugiert (15 Min., 160 x g). Das blättchenreiche Plasma wird durch Chromatographie an Sepharose CL-2B [Zum Eluieren: HEPES-Puffer, pH 7,4 20° C] gereinigt.
Definierte Mengen [z.B. 800 µl] der Blättchensuspension wurden 90 Min. bei Raumtemperatur inkubiert, d.h. vermischt mit: • a) einer […] [^3H]PAF-Lösung, verdünnt mit Puffer. • b) mit einer 30 p molaren [^3H] PAF-Lösung, die gleichzeitig eine u.-molare (nicht markierte) PAF-Lösung enthält, • c) mit der 30 pmolaren [^3H]PAF-Lösung und den Lösungen der Prüfsubstanzen (unterschiedliche Konzentrationen) • a) Dient zur Ermittlung der totalen Bindung, • b) Dient zur Ermittlung der unspezifischen Bindung.
Die Reaktion wurde durch Vakuumfiltration abgestoppt. Die Filter mit den Blutplättchen werden mit Scintilationsflüssigkeit versetzt und die verbliebene Radioaktivität in einem Counter gemessen. Die spezifische Bindung ergibt sich aus totaler Bindung minus unspezifischer Bindung. Man bestimmt entweder die ICso-Werte (d.h. jene Konzentration der Prüfsubstanz, die 50 % des Radioliganden - hier [^3H] PAF - vom Rezeptor verdrängt), und gibt diese an. Oder errechnet hieraus die Ki-Werte. Dies kann computerunterstützt durch ein Iterationsverfahren der Bindungskurven geschehen. ICso- bzw. Ki-Werte sind ein Maß für die Rezeptoraffinität der Testsubstanz. Kleinere Werte zeigen die höhere Affinität an.

[1] = four separated isomers of Example 9d, read-out: [^3H]PAF-Bindung (Ki)

T1 sequence (P25105 whole entry): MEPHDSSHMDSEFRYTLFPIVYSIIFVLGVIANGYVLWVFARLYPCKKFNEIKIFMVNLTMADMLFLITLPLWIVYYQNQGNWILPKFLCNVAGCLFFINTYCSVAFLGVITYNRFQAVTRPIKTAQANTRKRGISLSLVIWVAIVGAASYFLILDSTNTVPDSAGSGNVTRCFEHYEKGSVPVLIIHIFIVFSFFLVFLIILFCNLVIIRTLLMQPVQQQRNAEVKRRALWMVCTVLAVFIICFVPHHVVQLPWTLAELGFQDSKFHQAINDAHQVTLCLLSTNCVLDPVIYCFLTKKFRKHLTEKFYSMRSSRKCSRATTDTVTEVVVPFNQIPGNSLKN

Molecule | Ki [1] [nM] | other results
Cc1nnc2n1-c1sc3c(c1C(c1ccccc1Cl)=NC2C)CC(C(=O)N1CCOCC1)C3 (single isomer, unassigned; (+)) [(+) 9dB] | 3000 | –
Cc1nnc2n1-c1sc3c(c1C(c1ccccc1Cl)=NC2C)CC(C(=O)N1CCOCC1)C3 (single isomer, unassigned; (+)) [(+) 9dA] | 400 | –
Cc1nnc2n1-c1sc(CCC(=O)N3CCOCC3)cc1C(c1ccccc1Cl)=NC2C (single isomer, unassigned) [IB, 2-(Morpholinylcarbonylethyl)-4-(2-chlorphenyl)-6,9-dimethyl-6H-thieno(3,2-f][1,2,4]triazolo[4,3-a][1,4]diazepin] | – | bindet stärker an den PAF-Rezeptor als die (+)-Form (1A) (ratio of binding, (-)-form versus (+)-form of Example 1): 35 mal
Cc1nnc2n1-c1sc3c(c1C(c1ccccc1Cl)=NC2C)CC(C(=O)N1CCOCC1)C3 (stereo not shown) [Beispiel 9d] | – | Ki (33 : 67 mixture of diastereomers, read-out: [^3H]PAF-Bindung: K): 83 nM
Cc1nnc2n1-c1sc3c(c1C(c1ccccc1Cl)=NC2C)CC(C(=O)N1CCOCC1)C3 (single isomer, unassigned; (-)) [(-) 9dA] | 70 | –
Cc1nnc2n1-c1sc(CCC(=O)N3CCOCC3)cc1C(c1ccccc1Cl)=NC2C (racemic) [Beispiel 1, 2-(Morpholinylcarbonylethyl)-4-(2-chlorphenyl)-6,9-dimethyl-6H-thieno(3,2-f][1,2,4]triazolo[4,3-a][1,4]diazepin] | – | Ki (not stated whether IC50 or Ki, read-out: Affinität zum PAF-Rezeptor): 16 nM
3-(Morpholinocarbonyl)-5-(2-chlorphenyl)-7,10-dimethyl-3,4-dihydro-2H,7H-cyclopenta[4,5,thieno-[3,2-f]-[1.2.4]triazolo[4.3-a] [1,4]diazepin [(-) 9dB] | 8 | –

Reference: patent EP0368175A1, “3S,7S-3-(Morpholinocarbonyl)-5-(2-chlorphenyl)-7,10-dimethyl-3,4-dihydro-2H,7H-cyclopenta[4,5]thieno[3,2-f][1,2,4]triazolo[4,3-a][1,4]diazepine” (BOEHRINGER INGELHEIM KG, priority 1988, dated 1990)
